Assay results as given in PMC4431182 (2015).

Assays:
Experiment in all cases: electrochemical aptamer-based sensor, square wave voltammetry
[1] = system: 16GU (RNA, aptamer) CUUGGUUUAGGUAAUUAG; conditions: Na+ 100 mM, Mg2+ 5 mM; 20 mM Tris, pH 7.4; surface-immobilised aptamer; apparent
[2] = system: High-Gain Parent (RNA, aptamer) CUUGGUUUAGGUAAUGAG; conditions: Na+ 100 mM, Mg2+ 5 mM; 20 mM Tris, pH 7.4; surface-immobilised aptamer; apparent
[3] = system: 3-UAC (RNA, aptamer) CUUGGUUUAGGUAAUGAGUAC; conditions: Na+ 100 mM, Mg2+ 5 mM; 20 mM Tris, pH 7.4; surface-immobilised aptamer; apparent
[4] = system: 7UG (RNA, aptamer) CUUGGUGUAGGUAAUGAG; conditions: Na+ 100 mM, Mg2+ 5 mM; 20 mM Tris, pH 7.4; surface-immobilised aptamer; no quantitative binding, -9% signal change at 30 µM tobramycin
[5] = system: 7UC (RNA, aptamer) CUUGGUCUAGGUAAUGAG; conditions: Na+ 100 mM, Mg2+ 5 mM; 20 mM Tris, pH 7.4; surface-immobilised aptamer; no quantitative binding, 3% signal change at 30 µM tobramycin

For NC[C@H]1O[C@H](O[C@H]2[C@H](O)[C@@H](O[C@H]3O[C@H](CO)[C@@H](O)[C@H](N)[C@H]3O)[C@H](N)C[C@@H]2N)[C@H](N)C[C@@H]1O, the Kd [1] was 3000 ± 400 nM, the KD [2] was 80 ± 10 nM and the Kd [3] was 170 ± 30 nM. The binding [4] was “no” and the binding [5] was “no”.
